Earlier results in patent US7904011B2, “Temperature control unit and image forming apparatus including same” (Ricoh Company, Ltd., priority 2007, dated 2011).

Conditions: in vivo

Compound	acute oral toxicity LD50
CCOCCOC(=O)CCC(=O)OCCOCC [diethoxyethyl succinate]	5 g/kg
CC1COC(=O)O1 (stereo not drawn) [propylene carbonate]	29 g/kg
[Cl-].[Na+] [salt, reference compound]	3 g/kg
